According to patent US11027155B2, “Method for prevention and treatment of diabetic kidney disease” (priority 2019, dated 2021):
“Also recorded” adds a separate entry of the source.

Key:
[1] = tested on: eNOS−/−/db/db mice; assay: Glomerular Filtration Rate by single bolus FITC-inulin in conscious mice; assay type: in vivo
Text: The present disclosure describes a new use of HA synthesis inhibitors for the treatment of Diabetic Kidney Disease. To study the effects of HA inhibitors on the development of DKD, our experiments were done by providing the test drug (4-Methylumbelliferone, 4-MU) in the food to one of the best available murine models of diabetic nephropathy, the diabetic and moderately hypertensive endothelial nitric oxide synthase/leptin receptor deficient (eNOS−/−/db/db) mice (Mohan S., et al. Laboratory Investigation. 2008, vol. 88, p. 515-528; Betz B., at al. Nephron Exp Nephrol. 2014, vol. 126, p. 191-195). At 9 weeks old, the double homozygous mutant eNOS/db mice were separated in two similar groups regarding sex, body weight, non-fasting plasma glucose concentrations, and consanguinity. Experimental animals were fed at libitum identical artificial diets formulated by Envigo-Teklad, containing or not 5% of 4-MU sodium salt (Sigma, cat. no. M1508) until 19 weeks of age. Both diets provided 3.5 Kcal/g and contained by weight: 17.7% of protein, 53.7% of carbohydrate, and 7.2% of fat. […] In our experiments, GFR were determined before (week 8) and after 10 week of treatments (week 18) by a single bolus injection of fluorescein isothiocyanate-(FITC) labeled inulin in conscious mice (Rieg T. J Vis Exp. 2013, May 10: e50330, doi: 10.3791/50330). […]

[2] = tested on: aortic smooth muscle cell (aSMC); settings: in vitro; cited from earlier work
[3] = tested on: HA synthesis; settings: cited from earlier work
[4] = Body weight and appearance monitored weekly in eNOS/db mice; assay type: in vivo
Text: The present disclosure describes a new use of HA synthesis inhibitors for the treatment of Diabetic Kidney Disease. To study the effects of HA inhibitors on the development of DKD, our experiments were done by providing the test drug (4-Methylumbelliferone, 4-MU) in the food to one of the best available murine models of diabetic nephropathy, the diabetic and moderately hypertensive endothelial nitric oxide synthase/leptin receptor deficient (eNOS−/−/db/db) mice (Mohan S., et al. Laboratory Investigation. 2008, vol. 88, p. 515-528; Betz B., at al. Nephron Exp Nephrol. 2014, vol. 126, p. 191-195).
(§1) At 9 weeks old, the double homozygous mutant eNOS/db mice were separated in two similar groups regarding sex, body weight, non-fasting plasma glucose concentrations, and consanguinity. Experimental animals were fed at libitum identical artificial diets formulated by Envigo-Teklad, containing or not 5% of 4-MU sodium salt (Sigma, cat. no. M1508) until 19 weeks of age. Both diets provided 3.5 Kcal/g and contained by weight: 17.7% of protein, 53.7% of carbohydrate, and 7.2% of fat. Diets were kept sealed under vacuum at −20° C. protected from light. Every week, the old food was removed, and animals were provided fresh food pellets.
The weight and appearance of the animals was monitored weekly.

[5] = tested on: eNOS−/−/db/db mice; assay: Comparison of kidney morphology; assay type: in vivo; settings: diabetic mice fed 4-MU diet vs control diet
Text: (§2) The present disclosure describes a new use of HA synthesis inhibitors for the treatment of Diabetic Kidney Disease. To study the effects of HA inhibitors on the development of DKD, our experiments were done by providing the test drug (4-Methylumbelliferone, 4-MU) in the food to one of the best available murine models of diabetic nephropathy, the diabetic and moderately hypertensive endothelial nitric oxide synthase/leptin receptor deficient (eNOS−/−/db/db) mice (Mohan S., et al. Laboratory Investigation. 2008, vol. 88, p. 515-528; Betz B., at al. Nephron Exp Nephrol. 2014, vol. 126, p. 191-195). At 9 weeks old, the double homozygous mutant eNOS/db mice were separated in two similar groups regarding sex, body weight, non-fasting plasma glucose concentrations, and consanguinity. Experimental animals were fed at libitum identical artificial diets formulated by Envigo-Teklad, containing or not 5% of 4-MU sodium salt (Sigma, cat. no. M1508) until 19 weeks of age. Both diets provided 3.5 Kcal/g and contained by weight: 17.7% of protein, 53.7% of carbohydrate, and 7.2% of fat. Diets were kept sealed under vacuum at −20° C. protected from light. Every week, the old food was removed, and animals were provided fresh food pellets.

[6] = tested on: LPS-Induced Lung Inflammation; settings: mice; cited from earlier work
[7] = tested on: eNOS−/−/db/db mice; assay: Kidney histopathology (H&E, PAS), semi-quantitative glomerular index; assay type: in vivo
Text: The present disclosure describes a new use of HA synthesis inhibitors for the treatment of Diabetic Kidney Disease. To study the effects of HA inhibitors on the development of DKD, our experiments were done by providing the test drug (4-Methylumbelliferone, 4-MU) in the food to one of the best available murine models of diabetic nephropathy, the diabetic and moderately hypertensive endothelial nitric oxide synthase/leptin receptor deficient (eNOS−/−/db/db) mice (Mohan S., et al. Laboratory Investigation. 2008, vol. 88, p. 515-528; Betz B., at al. Nephron Exp Nephrol. 2014, vol. 126, p. 191-195). At 9 weeks old, the double homozygous mutant eNOS/db mice were separated in two similar groups regarding sex, body weight, non-fasting plasma glucose concentrations, and consanguinity. Experimental animals were fed at libitum identical artificial diets formulated by Envigo-Teklad, containing or not 5% of 4-MU sodium salt (Sigma, cat. no. M1508) until 19 weeks of age. Both diets provided 3.5 Kcal/g and contained by weight: 17.7% of protein, 53.7% of carbohydrate, and 7.2% of fat. Diets were kept sealed under vacuum at −20° C. protected from light. Every week, the old food was removed, and animals were provided fresh food pellets. Finally, for histopathology analysis kidneys were collected from 4-MU-treated and control mice at the end of the experiment. Organs were fixed in 10% NB formalin for 44 hours, embedded in paraffin, and 3 urn sections were stained with Hematoxylin and Eosin (H&E) or Periodic acid—Schiff (PAS), before being examined following Zhao H J et al. (Zhao H. J., et al. J Am Soc Nephrol. 2006, vol. 17, p. 2664-2669). A semi-quantitative index was used to evaluate the degree of glomerular mesangial expansion and sclerosis. 50 glomeruli on a single section (25 from each kidney) were scored from 0 to 4, where 0 represents no lesions and 1, 2, 3, and 4 represent mesangial matrix expansion or sclerosis involving less than or equal to 25, 26-50, 51-75, or >75% of the glomerular tuft area, respectively. End stage sclerotic glomeruli (glomerulosclerosis) were counted, as well as the number of glomeruli that contained nodules, and the percentage of affected glomeruli within the 50 analyzed. Histopathology staining and analyses were done by an independent service and the specialists were blind regarding the nature of the samples.

[8] = tested on: type 1 diabetes; settings: after the onset of autoimmune insulitis, two mice models; cited from earlier work
[9] = tested on: hyaluronan; assay: Serum hyaluronan content in 4-MU fed diabetic nephropathy mice; assay type: in vivo; settings: 4-MU fed animals, 5% 4-MU sodium salt in diet, after 3 weeks of treatment
Text: as §2, with “pellets. […] We detected in 4-MU fed animals a reduction of serum hyaluronan content of about 30% after 3 weeks of treatment.” for “pellets.”

[10] = tested on: renal ischemia-reperfusion injury (IRI); settings: cited from earlier work
[11] = tested on: malignant tumor cells; settings: in vitro and animal models of liver, breast, prostate, pancreatic, and renal carcinomas; cited from earlier work
[12] = tested on: plasma glucose; assay: Non-fasting plasma glucose (commercial kit EIAGLUC); assay type: in vivo, mice; settings: 4-MU-treated vs control, end of the experiments (18-week-old)
Text: as §1, with “-20°” for “−20°”, “pellets. Plasma glucose levels were measured using a commercial kit ([…], Invitrogen). […] This fact remarks an important difference between our invention and the use of 4-MU to treat autoimmune diabetes.” for “pellets.”

[13] = cited from earlier work
[14] = tested on: C-Reactive Protein; assay: C-Reactive Protein immunoassay in serum; assay type: in vivo, mice; settings: 4 weeks after being fed with the special diets
Text: as §1, with “pellets. […] C—RP is considering the gold standard marker for inflammation and the lack of differences in this protein between our experimental mice points out that 4-MU is not affecting the development of DKD by crucially changing the inflammatory responses in our diabetic animals but for other mechanism of action.” for “pellets.”

[15] = tested on: diabetic patients; settings: cited from earlier work
[16] = 4-MU-treated vs control, end of the experiment

In the case of Cc1cc(=O)oc2cc(O)ccc12 [4-MU, 4-Methylumbelliferone], the “GFR, initial (week 7-8) vs final (week 18) in treated mice” value ([1]; after 10 week of treatments) is listed as “No significant difference; also recorded: kept their GFR values unchanged”, the “progression of DKD” value ([1]; from GFR results) is listed as “significantly delayed the progression of DKD” and the aSMC apoptosis [2] is listed as “induced apoptosis”. For the same compound, the “aSMC proliferation, migration” value [2] was “blocked”, the HA synthesis [3] was “selectively inhibited” and the “overall health and survival” value ([4]; DKD animals) was “impacted their overall health and survival”. The “body weight over time vs control diet” value ([4]; eNOS/db mice, 4-MU diet from 9 to 19 weeks of age) was “keep their body weight for a longer period; also recorded: kept their body weight longer”, the “weight loss (final weight divided by maximum reached weight) vs control” value ([4]; final stages of the disease, end of the experiments) was “significant difference in weight loss; also recorded: control diet lost significantly more weight than the mice treated with 4-MU” and the kidney morphology [5] was “abnormalities are less pronounced; also recorded: less advanced degree of DKD”. The “LPS-Induced Lung Inflammation” value [6] was “can suppress”, the “signs of nephritis and tubulitis” value ([7]; 4-MU-treated mice, unlike control) was “did not found signs” and the glomerular injury index [7, 16] was “significant lower”. The nodular glomerulosclerosis [7, 16] was “lower”, the “degree of kidney injuries (histopathology summary)” value ([7]; FIG. 8) was “lower degree of kidney injuries” and the “progression to type 1 diabetes” value [8] was “halted progression to type 1 diabetes”. The “reduction of serum hyaluronan content” value [9] was “about 30%”, the “hyaluronan content in kidneys” value ([10]; 4-MU treatment) was “can reduce” and the “renal ischemia-reperfusion injury after kidney transplants” value ([10]; inhibition pre and post-operatively) was “protective”. For the same compound, the “cytostatic / anti-metastatic effect on malignant tumor cells” value [11] was “useful as cytostatic or in preventing metastasis”, the “non-fasting plasma glucose levels” value [12] was “No significant difference; also recorded: did not affect” and the “metabolism in vivo to 4-MUG and 4-MUS” value [13] was “rapidly metabolized”. The “C-RP values in serum, treated vs untreated” value [14] was “No significant difference; also recorded: not significant differences”.
In the case of Cc1ccc([C@@H]2O[C@H](CO)[C@@H](O)[C@H](O)[C@H]2O)cc1Cc1ccc(-c2ccc(F)cc2)s1 [canagliflozin], the “vascular and renal effects” value [15] is listed as “vascular and renal protective effects”.
